The values below come from US20040043432A1, “Compounds targeted to cellular locations” (priority 2000, published 2004).

The subject of assay [1] is lipid rafts on Raji cells. Put plainly: fluorescence microscopy colocalisation with lipid raft markers. The class given is cell-based. The following applies: 60 min at 37C, APT2104 with endogenous CD59, APT2105 and APT070 with FITC-CTB.
For a further assay, the system named is Raji cells. Put plainly: confocal microscopy of intracellular localization. Conditions: confocal microscope, added singly or with raft markers. The class given is cell-based. As to the method:
For confocal microscopy, cells were treated with a variety of compounds and antibodies as described above. The cells were fixed and mounted as described and visualised using an Axiophot microscope (Carl Zeiss) coupled to a Colour Coolview CCD colour camera. Filter settings for the simultaneous detection of red and green fluorescence were used. The digital images were processed using Photoshop software (Adobe Systems). Cell images were obtained that visualised either the surface of the cell or cell sections.
This example follows the same procedure as described in example 13 with the following modifications. In certain experiments, lipid raft targeted compounds were added to the cells either singly, or in combination with other compounds. The compounds were then visualized with fluorescent antibodies or in the case of APT2104 and APT2105 by their intrinsic fluorescence, in each case using a confocal microscope as described in methods.

Assay [2] deals with classical pathway-mediated haemolysis of sheep erythrocytes. The following applies: described in WO 98/02454; cited from earlier work.
The test system of assay [3] is complement-mediated lysis of guinea pig erythrocytes by human serum. Put plainly: C5b6-initiated reactive lysis of erythrocytes. The class given is cell-based. The following applies: reactive lysis assay. On the procedure:
C56 euglobulin was an essential reagent that was used for the C5b6-initiated reactive lysis of erythrocytes. C56 euglobulin was generated in and purified from some acute-phase sera from post-trauma individuals (such as sports injuries, surgery or childbirth). Blood was drawn from donors in the acute phase of inflammation and allowed to clot at room temperature. To each 10 mls of serum, 0.5 mls of yeast suspension was added and the mixture incubated overnight on a rotator at room temperature. The serum was centrifuged to remove the yeast and dialysed against 0.02M Na/K phosphate, pH 5.4. The precipitate (containing the C56 euglobulin) was collected by centrifugation and redisolved in 0.01M Na/K phosphate/0.05M NaCl, pH7.0 containing 25% v/v glycerol.
Guinea pig erythrocytes (TCS Microbiological, UK) were washed twice in PBS and resuspended to 5% by volume in PBS/0.05% CHAPS. 50 microL of these cells were placed in the wells of a round-bottomed microtitre plate. Samples to be tested were diluted in PBS/0.05% CHAPS and 50 microL of these test solutions then added to the wells containing the guinea pig erythrocytes. The plate was then incubated at 37 degrees Celsius for 20 minutes to allow binding of the samples to the erythrocytes. […] 100 microL of the supernatant was transferred to a clear flat bottomed microtitre plate and the absorbance at 410 nm measured spectroscopically. […]

Assay [4] concerns complement-mediated lysis by human serum. Put plainly: haemolytic assay (1:400 dilution of human serum). The following applies: read-out: concentration required to bring about 50% inhibition of lysis (IH50). The class given is cell-based. The text has this:
APT530 is a protein that comprises the short consensus repeats 1,2,3 and 4 of human CD55 (decay accelerating factor, DAF), with a carboxyl terminal cysteine residue expressed in a recombinant form in E. coli cells. cDNA that encoded human DAF mRNA was generated from total brain RNA as described in Example 9. A plasmid to encode APT530 was generated by PCR using the pUC-DAF plasmid as template. Primers were designed to amplify the region of the DAF gene encoding amino acids 35-285 (SCR1-4). The 5′ primer incorporated an NdeI restriction enzyme site, and a codon specifying glutamine, thereby introducing an amino terminal methionine-glutamine amino acid pair. The 3′ primer added a carboxyl terminal cysteine residue and incorporated an EcoRI restriction enzyme site. The PCR product was cloned into the pUC57/T T-vector as described, sequenced, the insert excised with NdeI and EcoRI, and ligated into pET266 (Novagen, Madison, USA). The product of this ligation is the plasmid pET99-01, which expresses DAF (SCR1-4). pET99-01 DNA was introduced into E. coli HAMS113 (see methods) and expression of the recombinant protein induced as described in Example 1. The expression of APT530 was analysed by SDS-PAGE (described in methods). […] Refolded […] was analysed by SDSPAGE, Western blot and the effectiveness of the protein in a haemolytic assay (described in methods). […]

“Also recorded” adds a separate entry of the source.

Regarding “N-Myristoyl Gly-Ser-Ser-Lys-Ser-Pro-Ser-Lys-Lys-Lys-Lys-Lys-Lys-Pro-Gly-Glu-Cys(S-succinimido Alexafluor™546 C5)-NH2 [APT2105]”, in assay [1], the “co-localisation with lipid raft markers (FITC-CTB / endogenous CD59)” value is given as “co-localise; also recorded: discrete punctate pattern”. In the assay with Raji cells, the “intracellular localization (intracellular fluorescence)” value was “intracellular fluorescence was seen”. The corresponding values for “N-Myristoyl-Gly-Ser-Ser-Lys-Ser-Pro-Ser-Lys-Lys-Lys-Lys-Lys-Lys-Pro-Gly-Glu-Cys(S-succinimido Alexafluor™488 C5)-NH2 [APT2104]” are “co-localise; also recorded: discrete punctate pattern” and “intracellular fluorescence was seen”.

Consider “APT070: residues 1-196 of CR1 ([SCR1-3]-Cys) derivatised with myristoyl cationic peptide MSWP-1; WO 98/02454 example 8 [reference compound]”, for which the “anti-complement activity, potency relative to [SCR1-3]-Cys” value in assay [2] is recorded as 100-1000 fold. The “co-localisation with lipid raft markers (FITC-CTB / endogenous CD59)” value in assay [1] is given as “co-localise; also recorded: discrete punctate pattern”. For the same molecule, in the assay with Raji cells, the “intracellular localization (intracellular fluorescence)” value is “intracellular fluorescence was seen”.

B1: APT632: soluble CD59 from human urine (u-hCD59, Seq. ID No. 1) thiolated with 2-iminothiolane and linked to APT542 (conjugate, listed as Homo sapiens)
chain: LQCYNCPNPTADCKTAVNCSSDFDACLITKAGLQVYNKCWKFEHCNFNDVTTRLRENELTYYCCKKDLCNFNEQLEN
modifications: thiolated with 2-iminothiolane, linked to APT542
On to B1, for which the “concentration at which guinea pig erythrocytes are protected from complement-mediated lysis by human serum” value in assay [3] was “greater than 0.5 nM”.

B2: APT2334: APT530 linked to a single molecule of APT542 (MSWP-1) (SEQ ID No: 11) (conjugate)
chain: MQDCGLPPDVPNAQPALEGRTSFPEDTVITYKCEESFVKIPGEKDSVICLKGSQWSDIEEFCNRSCEVPTRLNSASLKQPYITQNYFPVGTVVEYECRPGYRREPSLSPKLTCLQNLKWSTAVEFCKKKSCPNPGEIRNGQIDVPGGILFGATISFSCNTGYKLFGSTSSFCLISGSSVQWSDPLPECREIYCPAPPQIDNGIIQGERDHYGYRQSVTYACNKGFTMIGEHSIYCTVNNDEGEWSGPPPECRGCCDGPKKKKKKSPSKSSG
modifications: APT530 linked to APT542 (MSWP-1)
B2: the IC50 in assay [4] stood at 0.2 nM.

B3: APT530: short consensus repeats 1,2,3 and 4 of human CD55 (DAF) with a carboxyl terminal cysteine, expressed in E. coli (SEQ ID No: 10) (protein)
chain: MQDCGLPPDVPNAQPALEGRTSFPEDTVITYKCEESFVKIPGEKDSVICLKGSQWSDIEEFCNRSCEVPTRLNSASLKQPYITQNYFPVGTVVEYECRPGYRREPSLSPKLTCLQNLKWSTAVEFCKKKSCPNPGEIRNGQIDVPGGILFGATISFSCNTGYKLFGSTSSFCLISGSSVQWSDPLPECREIYCPAPPQIDNGIIQGERDHYGYRQSVTYACNKGFTMIGEHSIYCTVNNDEGEWSGPPPECRGC
Regarding B3, in assay [4], the IC50 was approximately 40 nM.
